Experimental data: patent US6673902B2, “Cyclin D binding factor, and uses thereof” (St. Jude Children's Research Hospital, priority 1996, dated 2004)

Experiments:
BS1-driven reporter = assay: Transactivation of BS1-driven luciferase reporter in 293T cells; type: cell-based, human
Source text: An XbaI-EcoRV fragment containing the entire DMP1 coding sequence is subcloned by blunt end ligation into a SpeI-XbaI fragment of the Rc/RSV vector (Invitrogen, La Jolla Calif.) to enable DMP1 expression in mammalian cells. 6×concatamerized BS1, 8×concatamerized, BS2, or 7×concatamerized M3 oligonucleotides (FIG. 5B) are inserted into the XhoI-SmaI sites of pGL2 (Pfornega) 5′ to a minimal simian virus 40 (SV40) early promoter driving firefly luciferase gene expression. The latter “reporter” plasmid (1 μg) together with increasing amounts of pRc/RSV-DMP1 expression plasmid compensated by decreasing quantities of control pRc/RSV DNA (total of both=2.5 μg) were transfected into 293T cells (1.5×10^6 cells per 60 mm diameter culture dish) by calcium phosphate precipitation (7). Two days later, cells were harvested, washed three times with PBS, and lysed in 1 ml of 25 mM glycylglycine (Sigma), pH 7.8, 15 mM MgSO4, 4 mM EDTA, 1 mM DTT, and 1% Triton X-100. After clearing by centrifugation, 50 μl aliquots were assayed diluted to 350 μl using 15 mM potassium phosphate buffer, pH 7.8, containing 15 mM MgSO4, 4 mM EGTA, 2 mM ATP, 1 mM DTT, and 67 uM luciferin (Sigma). Total light emission was measured for duplicate samples during the initial 20 seconds after luciferin injection with an Optocomp I luminometer (MGM Instruments, Hamden Conn.). […]

wild-type MEFs [1] = assay: BrdU incorporation / cell cycle arrest in wild-type MEFs; type: cell-based, mouse; settings: retroviral infection
Experimental: BrdU incorporation and immunofluorescence. Wild-type or ARF-null MEFs (4×10^4 cells) were seeded on gelatin-coated coverslips 16 hours before virus infection. Cells were infected three times with empty vector, or vectors expressing murine DMP1, human c-Myc, human E2F-1, or human Ets1. Cells were labeled 36 hours after virus infection with bromodeoxyuridine (BrdU, Sigma) for 14 hours in complete medium. For pulse labeling, MEFs were treated with 2 μM4-HT for 36 hours and labeled with BrdU for three hours at different intervals throughout the inductive phase. Cells were fixed in ice-cold methanol-acetone (1:1) for 10 min at −20° C. and then were stained with affinity-purified antibodies to DMP1 (AF) [Hirai and Sherr, Mol. Cell. […]
Based on the above observations, it was determined as to whether introduction of DMP1 would induce synthesis of the endogenous ARF protein in normal diploid fibroblast strains. […] Although the blot was normalized for protein input, the levels of p19^ARF induced by DMP1 were calculated to be 2-fold higher than those induced by Myc, because fewer cells were productively infected with the DMP1 virus in this experiment (see FIG. 15A).

wild-type MEFs [2] = assay: Apoptosis assay in wild-type MEFs deprived of serum; type: cell-based, mouse
Experimental: Apoptosis assays. Wild-type MEFs infected with the indicated retroviruses for 36 hours were starved for serum for 24 hours. Viability was determined by trypan blue dye exclusion, and DNA fragmentation was monitored by a terminal deoxynuclectidyl transferase (FACS-TUNEL) assay and by measurement of subdiploid DNA content of propidium iodide-stained nuclei [Zindy et al., Genes Dev. 12:2424-2433 (1998)].
On the other hand, MEFs overexpressing c-Myc, E2F-1, or E1A are exquisitely sensitive to apoptosis. […] 12:2424-2433 (1998); De Stanchina et al., Genes Dev. 12:2434-2442 (1998)].

With “DMP1: murine cyclin D-associated myb-like transcription factor, 761 amino acids, SEQ ID NO:1” the “activation of the BS1-driven reporter” value (BS1-driven reporter) was 7 fold, the cell cycle arrest (wild-type MEFs [1]) was “underwent cell cycle arrest” and the “apoptosis / cell death” value (wild-type MEFs [2]) was “did not trigger apoptosis”.
